Measured values published in ChEMBL document CHEMBL1201862, “PubChem BioAssay data set” (2004).
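Protocol summary: plate cells (96-well), add compound at 5 concentrations, incubate 48 h, interpolate endpoints linearly. GI50 is the concentration that inhibits growth by half.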 The source made the active and inactive calls. No stated cut-off is given here; in the data, active = GI50 up to about 1.1 µM and inactive = higher.

Experiments:
Experiment in all cases: NCI-60 cell line screen, 48 h
[1] = test system: HOP-92
[2] = test system: RXF 393
[3] = test system: LOX IMVI
[4] = test system: KM12
[5] = test system: T47D
[6] = test system: OVCAR-8
[7] = test system: TK-10
[8] = test system: SR
[9] = test system: SW-620
[10] = test system: HCC 2998
[11] = test system: ACHN
[12] = test system: PC-3
[13] = test system: A549
[14] = test system: SNB-19
[15] = test system: NCI-H23
[16] = test system: SF-295
[17] = test system: Hs-578T
[18] = test system: 786-0
[19] = test system: SK-MEL-2

Measured: GI50

O=C1c2ccccc2/N=C(/c2cc3c(cc2Cl)Sc2nccn2S3(=O)=O)OS(=O)(=O)N1c1ccccc1
inactive: [1] 80.5 µM | [2] 20.8 µM | [3] 8.09 µM | [4] 23 µM | [5] > 100 µM | [6] 17.4 µM | [7] 24.4 µM | [8] 10.8 µM | [9] 24.9 µM | [10] 8.36 µM | [11] 25.8 µM | [12] 44.4 µM | [13] 30.3 µM | [14] 33.7 µM | [15] 22.4 µM | [16] 16.9 µM | [17] 46.8 µM | [18] 38.4 µM

O=C1CCSC(=S)N1c1ccc(Br)c(Cl)c1
inactive: [1] 25.4 µM | [2] 20.1 µM | [3] 22 µM | [4] 31.2 µM | [5] 14.9 µM | [6] 30.5 µM | [7] 30.2 µM | [8] 32 µM | [9] 28.1 µM | [11] 21.6 µM | [12] 34.5 µM | [19] 28.4 µM | [13] 35.3 µM | [14] 23.7 µM | [15] 53.2 µM | [16] 32.7 µM | [17] 39 µM | [18] 24.4 µM

CSc1ncc2c(n1)-c1ccccc1OC2NC(C)(C)C (configuration not stated)
inactive: [1] 31.8 µM | [2] 98.4 µM | [3] > 100 µM | [4] > 100 µM | [5] 55 µM | [6] > 100 µM | [7] 33.9 µM | [8] > 100 µM | [9] > 100 µM | [10] 21.3 µM | [11] 92.9 µM | [12] > 100 µM | [13] > 100 µM | [14] > 100 µM | [15] > 100 µM | [16] 47.3 µM | [17] 83.4 µM | [18] > 100 µM

CC(C)(C)OC(=O)NCC(CNC(=O)OC(C)(C)C)C(N)=O
inactive: [1] > 100 µM | [2] > 100 µM | [3] > 100 µM | [4] > 100 µM | [5] > 100 µM | [6] > 100 µM | [7] > 100 µM | [8] > 100 µM | [9] > 100 µM | [10] > 100 µM | [11] > 100 µM | [12] > 100 µM | [13] > 100 µM | [14] > 100 µM | [15] > 100 µM | [16] > 100 µM | [17] > 100 µM | [18] > 100 µM
